Assay results from patent US11066692B2, “Real-time monitoring” (PROMEGA CORPORATION, priority 2012, dated 2021).

Experiments:
[1] = Stability of pro-furimazine substrate PBI-4600 in cell culture media (HPLC purity); format: physicochemical; conditions: 50 μM in RPMI cell culture media, room temperature or 37° C., up to 190 hours
Experimental: PBI-4600 (50 μM) was incubated in RPMI cell culture media at room temperature (RT) or 37° C. for increasing time points, up to 190 hours. HPLC analysis was performed to determine the purity of PBI-4600 at various time points.

[2] = test system: caspase activation in A549 cells; assay: Real-time monitoring of caspase activation; format: cell-based; conditions: 4 μM final concentration, 50 μM PBI-3741, 40 ng/ml NANOLUC
Experimental: A549 cells were plated at 1,000 cells/well into wells of a 384-well assay plate. 50 μM PBI-3741 (a pro-furimazine caspase substrate) and 40 ng/ml NANOLUC luciferase enzyme were added to the cells. To induce apoptosis, staurosporine was added to the cells at a 4 μM final concentration. The induction of apoptosis and activation of caspase were measured in real-time.

Cardiomyocyte cells = assay: Real-time measuring of drug induced changes in viability; format: cell-based; conditions: 200 μg/ml final, after multiple days of cell growth; 40 uM PBI-4600, 100 ng/ml NANOLUC
Experimental: Cardiomyocyte cells were plated and grown in media containing 40 uM PBI-4600 pro-substrate and 100 ng/ml NANOLUC luciferase protein sensor in a 37° C., 5% CO2 incubator. At various time points, luminescence was monitored on a Tecan M1000 plate reader. After multiple days of cell growth, digitonin was added to a final concentration of 200 μg/ml. Luminescence was read continually, starting immediately after digitonin addition.

[3] = test system: reactive oxygen species (ROS) in A549 cells; assay: Real-time monitoring of reactive oxygen species (ROS); format: cell-based; conditions: 200 μM, 10, 25 or 50 μM PBI-4759, 40 ng/ml NANOLUC
Experimental: A549 cells were plated at 1,000 cells/well into wells of a 384-well plate and incubated overnight. Then, either 10, 25, or 50 μM of a pro-furimazine hydrogen peroxide substrate, PBI-4759, and 40 ng/ml NANOLUC luciferase protein sensor were added to the cells. Menadione (200 μM), a known ROS inducer, or a vehicle control (DMSO) was added to the cells. Luminescence was monitored over time using a Tecan M1000 plate reader.

A549 cells = assay: Measuring cell death in real-time; format: cell-based; conditions: 1% final concentration, A549 cells 1,000 cells/well; 40 μM PBI-4600, 100 ng/ml NANOLUC
Experimental: A549 cells were plated into wells of a 384-well plate at 1,000 cells/well in the presence of 40 μM PBI-4600 pro-substrate and 100 ng/ml NANOLUC luciferase protein sensor. The cells were incubated and the luminescence signal was monitored at various time points on a Tecan M1000 plate reader. Triton X-100 was then added to a final concentration of 1%, and compared to control cells that received media only. Luminescence was continually monitored.

[4] = Protein sensor stability in cell culture; format: physicochemical; conditions: 40 ng/ml in A549 cell culture with 50 μM PBI-4600; signal compared with freshly added sensor
Experimental: A549 cells were plated at 250 cells/well into wells of a 384-well assay plate. 50 μM PBI-4600 pro-substrate and 40 ng/ml NANOLUC luciferase protein sensor were added to the cell culture and incubated for 72 hours. After incubation, 40 ng/ml NANOLUC luciferase protein sensor was added to the cell culture, and the signal was monitored 1.5 hours later.

Molecule: CC1=C(C)C(=O)C(C(C)(C)CC(=O)N(C)CCN(C)C(=O)Oc2c(Cc3ccco3)nc3c(Cc4ccccc4)nc(-c4ccccc4)cn23)=C(C)C1=O [PBI-4600]
- purity of PBI-4600 (HPLC) after incubation [1]: greater than 90%

Molecule: CN[C@@H]1C[C@H]2O[C@@](C)([C@@H]1OC)n1c3ccccc3c3c4c(c5c6ccccc6n2c5c31)C(=O)NC4 [staurosporine]
- change in luminescence (caspase activation) during treatment [2]: increase in luminescence

Molecule: C[C@@H]1CC[C@@]2(OC1)O[C@H]1[C@@H](O)[C@H]3[C@@H]4CC[C@H]5C[C@@H](O[C@@H]6O[C@H](CO)[C@H](O[C@@H]7O[C@H](CO)[C@@H](O)[C@H](O[C@@H]8OC[C@@H](O)[C@H](O)[C@H]8O)[C@H]7O[C@@H]7O[C@H](CO)[C@H](O)[C@H](O[C@@H]8O[C@H](CO)[C@@H](O)[C@H](O)[C@H]8O)[C@H]7O)[C@H](O)[C@H]6O)[C@H](O)C[C@]5(C)[C@H]4CC[C@]3(C)[C@H]1[C@@H]2C [digitonin]
- change in luminescence signal (cell viability) after addition (Cardiomyocyte cells): rapid decrease in signal

Molecule: CC1=CC(=O)c2ccccc2C1=O [menadione, Menadione]
- time at which maximum luminescence signal was reached after addition [3]: 5 h

Molecule: Triton X-100
- change in luminescence signal (cell viability) after addition (A549 cells): rapid decrease in signal

B1: NANOLUC luciferase: modified, enhanced luciferase enzyme from Oplophorus, Promega Corporation, SEQ ID NO: 1 (protein)
chain: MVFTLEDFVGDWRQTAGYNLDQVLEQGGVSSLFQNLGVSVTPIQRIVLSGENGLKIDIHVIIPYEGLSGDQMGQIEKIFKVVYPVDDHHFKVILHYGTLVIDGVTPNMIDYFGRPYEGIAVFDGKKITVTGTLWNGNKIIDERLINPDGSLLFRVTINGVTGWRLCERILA
- time stable in cell culture conditions [4]: at least 72 h
